Reference: patent publication US20120004289A1, “ANNEXIN A11 AND ASSOCIATED GENES AS BIOMARKERS FOR CANCER” (The Johns Hopkins University, priority 2009, published 2012)

Tests used:
Assay type in all cases: cell-based, human
[1] = test system: 2008 cells; assay: Time course of gene expression response to cisplatin, Agilent 44K whole genome oligo microarray; details: 10 μM cisplatin
Protocol: 2008 cells were cultured in T150 flasks and transfected with A1 or negative control for 2 days. Cells were then collected, counted, and placed into 100-mm dishes. After incubating overnight, transfected cells were at 50% confluence and treated with 10 μM cisplatin (Sigma-Aldrich, St. Louis, Mo.) for 0, 8, 16, and 24 hours and then harvested in two portions for both total RNA and total protein extractions at every single time point. The optimized dose and duration of cisplatin treatment were experimentally determined in a previous study. Total RNA was isolated using TRIZOL reagent (Invitrogen) followed by RNeasy mini kit with DNase on-column digestion (Qiagen, Valencia, Calif.). RNA was quantified with NanoDrop ND-1000 followed by quality assessment with the 2100 Bioanalyzer (Agilent Technologies, Santa Clara, Calif.) according to manufacturer's protocol. Total RNA was labeled using Agilent Low RNA Input Fluorescent Linear Amplification Kit (Agilent) following the manufacturer's instruction with minor modifications. Briefly, 0.4 μg of RNA was reverse transcribed into cDNA by MMLV-RT using an oligo dT primer (System Biosciences, Mountain View, Calif.) that incorporated a T7 promoter sequence. The cDNA was then used as a template for in vitro transcription in the presence of T7 RNA polymerase and cyanine-3-labeled CTPs (Perkin Elmer Life Sciences, Boston, Mass.). RNA spike-in controls (Agilent) were added to RNA samples before amplification and labeling. The labeled cRNA was purified using the RNeasy mini kit (Qiagen). A total of 0.825 μg of each Cy3-labeled sample was used for hybridization on Agilent 4×44K whole human genome microarray at 65° C. for 17 hours in a hybridization oven with rotation. After hybridization, slides were washed and dried using stabilization and drying solution according to the Agilent microarray processing protocol. Slides were scanned using the Agilent Microarray Scanner controlled by Agilent Scan Control 7.0 software. Microarray data were extracted with Agilent Feature Extraction 9.5.3.1 software and imported into GeneSpring GX 10 (Agilent). […]

[2] = test system: 2008 cells; assay: Cell cytotoxicity assay of cisplatin (CCK-8) in siRNA- or control-transfected 2008 cells; details: 72 hours
Protocol: (A and B) Cell proliferation assay. 2008 (A) or HEY (B) cells were treated with RNAi (A1) or -Ctr at the concentration of 40 nM for 3 days, respectively, and then plated at 3000 viable cells per well into 96-well plates. Every 24 hours, one plate was subjected to assay by CCK-8 kit. The data in each time point are averaged values from eight replicates (P<0.05). (C) Colony formation assay. 2008 cells were treated in the same way as above for 3 days and then plated at 3000 viable cells per well into six-well plates. Six days after plating, cells were fixed with methanol and stained with 0.1% crystal violet and colonies were counted. The experiment was performed in six replicates (P<0.01). (D) Cell cytotoxicity assay. 2008 cells were treated in same way as above for 3 days and then plated at 3000 viable cells per well into 96-well plates. After incubating overnight, cells were treated with various concentration of cisplatin diluted in 100 μl of conditioned medium (the final concentrations of cisplatin were 0, 1.56, 3.13, 6.25, 12.5, 25, 50, and 100 μg/ml). After continuous incubation for 72 hours, the plates were subjected to assay by CCK-8 kit. The experiment was performed in three replicates (P<0.01). Three independent experiments were performed for each assay. […] Cells were then collected, counted, and plated at 3000 viable cells per well into 96-well plates in a final volume of 100 μl. […]

[3] = test system: 2008 cells; assay: Real-time PCR validation of gene expression response to cisplatin; details: both groups of cells
Protocol: 2008 cells were cultured in T150 flasks and transfected with A1 or negative control for 2 days. Cells were then collected, counted, and placed into 100-mm dishes. After incubating overnight, transfected cells were at 50% confluence and treated with 10 μM cisplatin (Sigma-Aldrich, St. Louis, Mo.) for 0, 8, 16, and 24 hours and then harvested in two portions for both total RNA and total protein extractions at every single time point. The optimized dose and duration of cisplatin treatment were experimentally determined in a previous study. Total RNA was isolated using TRIZOL reagent (Invitrogen) followed by RNeasy mini kit with DNase on-column digestion (Qiagen, Valencia, Calif.). RNA was quantified with NanoDrop ND-1000 followed by quality assessment with the 2100 Bioanalyzer (Agilent Technologies, Santa Clara, Calif.) according to manufacturer's protocol. […]. One microgram of total RNA was used to generate cDNA using the iScript cDNA Synthesis Kit (Bio-Rad, Hercules, Calif.). […] An experiment consisted of triplicate amplification reactions for each gene product being analyzed. […] The cycle threshold number (CT) was determined for each PCR using iQ5 Real-time PCR Detection System (Bio-Rad). […] Results are expressed as relative abundance of a specific mRNA between control and experimental sample (fold change, mean±SD).

N.N.[Cl][Pt][Cl] [cisplatin]
number of genes upregulated or downregulated more than two-fold vs 0 hour in both groups of cells ([1]; 8 hours): 6 genes
number of genes upregulated or downregulated more than two-fold vs 0 hour in both groups of cells ([1]; 16 hours): 19 genes
number of genes upregulated or downregulated more than two-fold vs 0 hour in both groups of cells ([1]; 24 hours): 47 genes
fold increase of IC50 in RNAi cells compared with control cells [2]: 2.6 fold
PCSK9 gene expression (real-time PCR) ([3]; 10 μM cisplatin, 8, 16 and 24 hours): decreased at 8 hours but increased at 16 and 24 hours
DHRS2 gene expression (real-time PCR) ([3]; 10 μM cisplatin, 16 and 24 hours): down-regulation
